Each block holds one molecule with its values, some of them ahead of it.
Tests used:
[1] = biological target: C-C chemokine receptor type 2 (Homo sapiens, UniProt P41597); test: Antagonist activity at human CCR2; assay type: functional
Cytochrome P450 3A4 [2] = biological target: T1, Cytochrome P450 3A4 (Homo sapiens, UniProt P08684); test: Inhibition of human CYP3A4 using 7-benzyloxyquinoline as substrate; assay type: ADME
Cytochrome P450 2C19 = Cytochrome P450 2C19 (Homo sapiens, UniProt P33261); test: Inhibition of human CYP2C19; assay type: ADME
Chain of Cytochrome P450 2C19 (P33261 whole entry): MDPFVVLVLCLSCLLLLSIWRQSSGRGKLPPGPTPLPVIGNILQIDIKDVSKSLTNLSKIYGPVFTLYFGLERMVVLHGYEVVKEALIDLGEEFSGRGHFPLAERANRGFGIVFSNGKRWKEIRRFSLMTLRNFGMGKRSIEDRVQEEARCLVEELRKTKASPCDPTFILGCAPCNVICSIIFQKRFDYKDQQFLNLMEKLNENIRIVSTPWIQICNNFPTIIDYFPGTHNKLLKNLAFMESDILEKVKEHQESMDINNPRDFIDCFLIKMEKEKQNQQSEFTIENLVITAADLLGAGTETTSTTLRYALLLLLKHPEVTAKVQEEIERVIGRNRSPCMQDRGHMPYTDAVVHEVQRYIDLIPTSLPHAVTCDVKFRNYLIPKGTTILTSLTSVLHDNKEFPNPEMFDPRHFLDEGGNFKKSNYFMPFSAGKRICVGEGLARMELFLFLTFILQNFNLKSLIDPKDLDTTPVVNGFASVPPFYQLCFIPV

[3] = Oral bioavailability in rat at 10 mg/kg; assay type: ADME, organism-based; details: in vivo
[4] = Cmax in rat at 10 mg/kg, po; assay type: ADME, organism-based; design: dose 10 mg/kg, route oral; details: in vivo
Cytochrome P450 3A4 [5] = biological target: T1, Cytochrome P450 3A4; test: Inhibition of human CYP3A4 using dibenzylfluorescein as substrate; assay type: ADME
[6] = Half life in rat at 10 mg/kg, po; assay type: ADME, organism-based; design: dose 10 mg/kg, route oral; details: in vivo
Cytochrome P450 3A4 [7] = biological target: T1, Cytochrome P450 3A4; test: Inhibition of human CYP3A4 using 7-benzyloxy-4-trifluoromethylcoumarin as substrate; assay type: ADME
Cytochrome P450 1A2 = biological target: T2, Cytochrome P450 1A2 (Homo sapiens, UniProt P05177); test: Inhibition of human CYP1A2; assay type: ADME
T2 sequence (P05177 whole entry): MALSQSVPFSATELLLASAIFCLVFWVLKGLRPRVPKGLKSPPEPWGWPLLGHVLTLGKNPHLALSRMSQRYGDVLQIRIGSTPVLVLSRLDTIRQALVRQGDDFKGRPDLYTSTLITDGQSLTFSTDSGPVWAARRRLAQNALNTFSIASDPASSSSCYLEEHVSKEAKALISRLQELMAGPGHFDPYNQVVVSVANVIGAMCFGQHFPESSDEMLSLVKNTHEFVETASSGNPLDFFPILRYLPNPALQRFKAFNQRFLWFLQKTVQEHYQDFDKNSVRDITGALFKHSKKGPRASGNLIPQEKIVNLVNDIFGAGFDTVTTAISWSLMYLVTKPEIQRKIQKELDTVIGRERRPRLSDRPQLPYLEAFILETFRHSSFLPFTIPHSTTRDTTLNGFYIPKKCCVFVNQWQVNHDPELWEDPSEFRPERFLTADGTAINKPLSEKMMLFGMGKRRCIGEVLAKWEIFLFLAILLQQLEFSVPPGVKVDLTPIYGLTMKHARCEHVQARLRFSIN

Cytochrome P450 2D6 = Cytochrome P450 2D6 (Homo sapiens, UniProt P10635); test: Inhibition of human CYP2D6; assay type: ADME
Chain of Cytochrome P450 2D6 (P10635 whole entry): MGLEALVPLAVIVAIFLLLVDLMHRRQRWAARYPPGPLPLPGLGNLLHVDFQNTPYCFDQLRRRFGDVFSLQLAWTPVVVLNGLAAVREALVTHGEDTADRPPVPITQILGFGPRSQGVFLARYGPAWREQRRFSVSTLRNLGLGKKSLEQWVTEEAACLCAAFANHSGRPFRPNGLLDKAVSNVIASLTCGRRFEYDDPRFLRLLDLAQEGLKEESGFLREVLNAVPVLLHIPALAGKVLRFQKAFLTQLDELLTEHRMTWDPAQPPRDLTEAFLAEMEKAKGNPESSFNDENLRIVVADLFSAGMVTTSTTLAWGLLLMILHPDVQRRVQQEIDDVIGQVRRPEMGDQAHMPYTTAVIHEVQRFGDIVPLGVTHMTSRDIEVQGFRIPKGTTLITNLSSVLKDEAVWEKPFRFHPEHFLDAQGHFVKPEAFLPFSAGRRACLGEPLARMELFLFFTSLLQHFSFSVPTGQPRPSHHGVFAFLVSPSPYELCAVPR

Chain of C-C chemokine receptor type 2 (P41597 whole entry): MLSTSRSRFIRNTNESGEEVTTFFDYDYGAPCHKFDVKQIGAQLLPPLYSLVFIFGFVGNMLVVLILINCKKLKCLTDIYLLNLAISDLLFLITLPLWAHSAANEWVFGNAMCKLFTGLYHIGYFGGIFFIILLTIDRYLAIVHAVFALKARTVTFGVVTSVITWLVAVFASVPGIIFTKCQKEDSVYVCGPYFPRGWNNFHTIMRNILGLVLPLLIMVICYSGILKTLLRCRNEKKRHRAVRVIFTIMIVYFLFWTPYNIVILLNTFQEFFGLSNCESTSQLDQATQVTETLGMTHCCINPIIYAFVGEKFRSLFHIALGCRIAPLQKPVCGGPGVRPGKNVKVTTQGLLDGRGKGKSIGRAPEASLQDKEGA
T1 sequence (P08684 whole entry): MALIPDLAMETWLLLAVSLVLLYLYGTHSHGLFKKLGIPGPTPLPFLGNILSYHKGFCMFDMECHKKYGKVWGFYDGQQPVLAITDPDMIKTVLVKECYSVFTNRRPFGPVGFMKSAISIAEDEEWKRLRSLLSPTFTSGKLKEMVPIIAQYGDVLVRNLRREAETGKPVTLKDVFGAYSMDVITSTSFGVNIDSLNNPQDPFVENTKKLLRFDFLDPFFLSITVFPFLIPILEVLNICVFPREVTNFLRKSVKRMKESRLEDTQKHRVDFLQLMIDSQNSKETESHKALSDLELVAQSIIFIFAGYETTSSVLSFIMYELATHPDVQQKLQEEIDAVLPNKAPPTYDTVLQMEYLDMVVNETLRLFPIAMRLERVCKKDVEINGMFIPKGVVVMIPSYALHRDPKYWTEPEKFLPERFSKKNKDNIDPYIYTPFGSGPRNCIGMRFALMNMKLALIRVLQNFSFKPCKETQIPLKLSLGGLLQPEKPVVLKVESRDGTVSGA

SMILES: O=C(/C=C/c1cc(F)c(F)c(F)c1)N1CCC(CN2CCC(c3c[nH]c4ncccc34)CC2)CC1
IC50 [1]: 1300 nM

SMILES: O=C(/C=C/c1ccc(Cl)c(Cl)c1)N1CCC(C(CO)N2CCC(c3c[nH]c4ncccc34)CC2)CC1 (racemic)
IC50 [1]: 6 nM

SMILES: O=C(/C=C/c1cc(F)cc(F)c1)N1CCC([C@@H](CO)N2CCC(c3c[nH]c4ncccc34)CC2)CC1
IC50 (Cytochrome P450 3A4 [2]): > 40000 nM | IC50 [1]: 4 nM | IC50 (Cytochrome P450 2C19): 27100 nM | bioavailability [3]: 36% | Cmax [4]: 341 ng/mL | IC50 (Cytochrome P450 3A4 [5]): 20600 nM | half-life [6]: 5.6 h | IC50 (Cytochrome P450 3A4 [7]): 25200 nM | IC50 (Cytochrome P450 1A2): > 40000 nM | IC50 (Cytochrome P450 2D6): 13300 nM

More lines, now with the values ahead:

IC50 [1]: 17 nM
SMILES: O=C(O)C(C1CCN(C(=O)/C=C/c2cc(F)c(F)c(F)c2)CC1)N1CCC(c2c[nH]c3ncccc23)CC1 (stereo unspecified)

IC50 [1]: 6 nM
SMILES: O=C(/C=C/c1cc(F)cc(F)c1)N1CCC(C(CO)N2CCC(c3c[nH]c4ncccc34)CC2)CC1 (racemic)

IC50 [1]: 7 nM
SMILES: O=C(/C=C/c1cc(F)c(F)c(F)c1)N1CCC(C(CO)N2CCC(c3c[nH]c4ncccc34)CC2)CC1 (racemic)

IC50 [1]: 14 nM
SMILES: O=C(Nc1ccc(Cl)c(Cl)c1)N1CCC(C(CO)N2CCC(c3c[nH]c4ncccc34)CC2)CC1 (racemic)

From ChEMBL document CHEMBL1152182, “Synthesis and structure-activity relationship of 7-azaindole piperidine derivatives as CCR2 antagonists” (Bioorg Med Chem Lett, 2008)
